Active and inactive are the calls of the source. Unless noted, the calls are words filed in the database; no cut-off is given here.
Columns and labels:
Assay type in all cases: functional
[1] = biological target: Glycogen synthase kinase-3 beta (Homo sapiens, UniProt P49841); test: GSK3beta kinase inhibitors, dose response, biochemical, microfluidics, dry powder samples, set 2 (AID 623989)
[2] = biological target: Glycogen synthase kinase-3 alpha (Homo sapiens, UniProt P49840); test: human GSK3 alpha kinase inhibition, dose response, selectivity assay for GSK3beta inhibitor project, biochemical, microfluidics, dry powder samples, set 2 (AID 623978)
[3] = biological target: Cyclin-dependent kinase 5/CDK5 activator 1 (Homo sapiens, UniProt Q00535); test: CDK5-p25 kinase inhibition, dose response, selectivity assay for GSK3beta inhibitor project, biochemical, microfluidic mobility shift, dry powder, set 2 (AID 623979)
Chain of Cyclin-dependent kinase 5/CDK5 activator 1 (Q00535 whole entry): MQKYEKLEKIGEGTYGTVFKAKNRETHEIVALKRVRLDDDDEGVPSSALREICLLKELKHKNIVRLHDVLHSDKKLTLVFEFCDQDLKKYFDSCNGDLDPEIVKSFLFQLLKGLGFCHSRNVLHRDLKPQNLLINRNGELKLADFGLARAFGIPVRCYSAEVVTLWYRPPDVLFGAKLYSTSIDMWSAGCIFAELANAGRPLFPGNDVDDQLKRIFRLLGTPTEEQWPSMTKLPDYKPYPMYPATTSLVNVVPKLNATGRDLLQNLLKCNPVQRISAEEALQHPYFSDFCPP
Chain of Cyclin-dependent kinase 5/CDK5 activator 1 (Q15078 whole entry, further chain): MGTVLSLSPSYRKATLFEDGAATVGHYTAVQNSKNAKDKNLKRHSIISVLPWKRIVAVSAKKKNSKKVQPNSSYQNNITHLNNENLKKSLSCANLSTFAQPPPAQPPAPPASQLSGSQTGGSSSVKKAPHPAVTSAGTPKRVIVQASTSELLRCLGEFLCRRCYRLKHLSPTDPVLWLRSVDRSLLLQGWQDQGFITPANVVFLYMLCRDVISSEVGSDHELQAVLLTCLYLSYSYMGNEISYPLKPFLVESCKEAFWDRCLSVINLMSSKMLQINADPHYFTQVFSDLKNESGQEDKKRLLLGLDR

Chain of Glycogen synthase kinase-3 beta (P49841 whole entry): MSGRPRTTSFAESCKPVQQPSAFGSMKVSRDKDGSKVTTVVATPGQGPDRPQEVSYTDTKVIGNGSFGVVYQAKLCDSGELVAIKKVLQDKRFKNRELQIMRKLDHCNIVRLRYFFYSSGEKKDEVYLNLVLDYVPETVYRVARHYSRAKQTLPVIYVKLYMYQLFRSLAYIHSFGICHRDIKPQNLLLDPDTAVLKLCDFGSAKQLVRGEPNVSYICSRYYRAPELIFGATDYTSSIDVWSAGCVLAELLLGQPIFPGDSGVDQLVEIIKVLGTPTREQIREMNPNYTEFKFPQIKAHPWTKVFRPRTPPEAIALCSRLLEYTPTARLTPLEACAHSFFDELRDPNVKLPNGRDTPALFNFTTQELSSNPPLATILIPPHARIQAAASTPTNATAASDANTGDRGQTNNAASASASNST
Chain of Glycogen synthase kinase-3 alpha (P49840 whole entry): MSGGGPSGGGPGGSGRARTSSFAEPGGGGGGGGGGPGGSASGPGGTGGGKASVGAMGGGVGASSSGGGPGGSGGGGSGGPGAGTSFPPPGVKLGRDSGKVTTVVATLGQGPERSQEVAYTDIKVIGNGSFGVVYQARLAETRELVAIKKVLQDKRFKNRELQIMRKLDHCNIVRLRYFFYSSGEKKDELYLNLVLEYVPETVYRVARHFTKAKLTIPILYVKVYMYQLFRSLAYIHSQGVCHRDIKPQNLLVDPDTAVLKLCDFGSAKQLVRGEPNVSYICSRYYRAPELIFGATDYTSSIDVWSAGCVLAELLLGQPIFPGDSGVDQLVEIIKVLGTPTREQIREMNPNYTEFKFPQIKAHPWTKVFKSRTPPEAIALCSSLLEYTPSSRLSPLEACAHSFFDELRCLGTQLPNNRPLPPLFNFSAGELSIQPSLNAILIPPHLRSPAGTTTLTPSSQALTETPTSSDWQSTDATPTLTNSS

- AC50 [1]: 107 nM (active)
- AC50 [2]: 361 nM (active)
- AC50 [3]: 38 nM (active)
Compound: Cc1cccc(C(=O)N[C@H]2C[C@@H](n3cnc(NC(=O)Cc4cccc5ccccc45)c3)C2)n1

Source: ChEMBL document CHEMBL1201862, “PubChem BioAssay data set” (2004)
